This note sets out measurements from PubChem BioAssay AID743478 (Broad Institute, 2014).

SMILES strings stand for the structures. “And” between values parts separate entries of the source, which are not always exact repeats. Identical values can stand only once. The source made the active and inactive calls.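 How the source made its calls: active means fitted curve falls past -35% activity change at a dose below twice the highest valid tested dose; inconclusive means no clear call, values can overlap the other calls; inactive means the rest, including activity opposite to the expected decrease.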 A value given as a limit tells only on which side of the number the result lay.

Test system in the first experiment: not listed separately
Briefly: A673 Ewing sarcoma cell viability loss – luminescence, retest at dose, dry powder, confirmation (AID 743478). The settings on record: A673 viability, CellTiter-Glo ATP luminescence, 72 h; at 1.6 µM (top of the series).
Regarding `CCN(CCO)CCCOc1ccc2c(Nc3cc(CC(=O)Nc4cccc(F)c4)[nH]n3)ncnc2c1`, the activity change, negative = cytotoxicity was -35.3% (inactive).

Still in this experiment, the particulars now being: A673 viability, CellTiter-Glo ATP luminescence, 72 h; at 6 µM (top of the series).
As for `Clc1ccc(-c2cnc3ccc(-c4ccccc4)cn23)cc1`, the activity change, negative = cytotoxicity was 1.33% (inactive).

Staying with this experiment, now noted: A673 viability, CellTiter-Glo ATP luminescence, 72 h; at 12 µM (top of the series).
Turning to `COc1ccc(NC(=O)Nc2ccc3c(c2)C(=O)N([C@@H](C)CO)C[C@H](C)[C@H](CN(C)Cc2ccc4c(c2)OCO4)O3)cc1`, the activity change, negative = cytotoxicity is -32.3% (inactive).

The experiment is the same for the next values; noted with them: A673 viability, CellTiter-Glo ATP luminescence, 72 h; at 26 µM (top of the series).
With `Cc1ccc(C2C(C#N)=C(N)Oc3cc(N)ccc32)cc1` (configuration not stated), the activity change, negative = cytotoxicity was -0.754% (inactive).

`O=C(Nc1c(Cl)cncc1Cl)c1ccc(OC(F)F)c(OCC2CC2)c1`: the activity change, negative = cytotoxicity is 7.47% (inactive).

Take `COc1ccc(C2C(C#N)=C(N)Oc3cc(N)ccc32)cc1` (configuration not stated): the activity change, negative = cytotoxicity was -1.79% (inactive).

Consider `CCC(C)(C)C(=O)O[C@H]1C[C@@H](C)C=C2C=C[C@H](C)[C@H](CC[C@@H]3C[C@@H](O)CC(=O)O3)[C@H]21`, for which the activity change, negative = cytotoxicity was -7.51% (inactive).

Consider `COc1ccc(C2=Nn3c(nnc3-c3ccccc3)SC2)cc1OC`, for which the activity change, negative = cytotoxicity is -5.89% (inactive).

In the case of `CN1c2ccc(-c3ccc(C#N)cc3)cc2[C@H]2[C@H](CCN2S(=O)(=O)c2ccc(F)cc2)[C@H]1CO`, the activity change, negative = cytotoxicity was -15.2% (inactive).

For the molecule `COc1ccccc1C1C(C#N)=C(N)Oc2cc(N)ccc21` (configuration not stated), the activity change, negative = cytotoxicity is -4.28% (inactive).

Take `N#CC1=C(N)Oc2cc(N)ccc2C1c1ccc(Cl)cc1` (configuration not stated): the activity change, negative = cytotoxicity was 0.262% (inactive).

With `COc1ccc(-c2cc(NC(C)=O)c3ncc(-c4ccc(OC)c(OC)c4)n3c2)cc1`, the activity change, negative = cytotoxicity was -6.5% (inactive).

Consider `COc1ccc(C2CNC(=O)C2)cc1OC1CCCC1` (configuration not stated), for which the activity change, negative = cytotoxicity is -1.09% (inactive).

`C[C@]1(c2nc3c(C(N)=O)cccc3[nH]2)CCCN1`: the activity change, negative = cytotoxicity is -26% (inactive).

As to `COc1ccc(CNc2nc(N3CCC[C@H]3CO)ncc2C(=O)NCc2ncccn2)cc1Cl`, the activity change, negative = cytotoxicity is 0.28% (inactive).

The experiment is the same for the next values; noted with them: A673 viability, CellTiter-Glo ATP luminescence, 72 h; at 50 µM (top of the series).
Consider `O=P1(NCCCl)OCCCN1CCCl` (configuration not stated), for which the activity change, negative = cytotoxicity was 0.494% (inactive).

Another experiment relates to A673 viability, CellTiter-Glo ATP luminescence, 72 h. Described as above.
Conditions: not given
`N#CC1=C(N)Oc2cc(N)ccc2C1c1ccccc1` (configuration not stated): the AC35 is 12200 nM.

`N#CC1=C(N)Oc2cc(O)ccc2C1c1cccc(Br)c1` (configuration not stated): the AC35 is 1840 nM.

As to `CN1c2ccc(-c3ccc(C#N)cc3)cc2[C@H]2[C@H](CCN2S(=O)(=O)c2cccc(F)c2)[C@H]1CO`, the AC35 was 3650 nM.

Take `COc1ccccc1-c1nnc2n1N=C(c1ccc(O)c(O)c1)CS2`: the AC35 was 807 nM.

For `Cc1ccc([N+](=O)[O-])cc1S(=O)(=O)N(C)C`, the AC35 is 3970 nM.

For the molecule `Cc1c([C@H](C(Cl)Cl)[C@H](O)[C@H]2C[C@H](C)C(=O)O2)ccc2c1C(=O)[C@H]1[C@H]2C[C@@H](Br)[C@@]23O[C@@H](CO[C@H]2O)C[C@]13C`, the AC35 is less than 50 nM.

Regarding `CN(C(=O)CCCOc1ccc2[nH]c(=O)ccc2c1)C1CCCCC1`, the AC35 is 20700 nM.

With `COc1cccc2c1C(=O)c1c(O)c3c(c(O)c1C2=O)C[C@@](O)(C(=O)CO)C[C@@H]3O[C@H]1C[C@H](N)[C@H](O)[C@H](C)O1`, the AC35 is less than 50 nM.

Regarding `COc1cc([C@@H]2c3cc4c(cc3[C@@H](O[C@@H]3O[C@@H]5CO[C@@H](C)O[C@H]5[C@H](O)[C@H]3O)[C@H]3COC(=O)[C@H]23)OCO4)cc(OC)c1O`, the AC35 was 751 nM.

With `Nc1ncnc2c1c(-c1cccc(OCc3ccccc3)c1)cn2C1CC(CN2CCCC2)C1` (configuration not stated), the AC35 was 3760 nM.

For the molecule `COc1ccccc1S(=O)(=O)N1CC[C@@H]2[C@@H](CO)Nc3ccc(-c4ccc(C#N)cc4)cc3[C@@H]21`, the AC35 was 11600 nM.

On to `COc1ccc(S(=O)(=O)N2CC[C@@H]3[C@@H](CO)Nc4ccc(-c5ccc(C#N)cc5)cc4[C@@H]32)cc1`, for which the AC35 is 4030 nM.

Take `COc1ccc(S(=O)(=O)N2CC[C@@H]3[C@@H](CO)N(C)c4ccc(-c5ccc(F)cc5)cc4[C@@H]32)cc1`: the AC35 is 3080 nM.

For the molecule `CC(C)(O)CCc1ccc(O)c2c(=O)c3c(O)c4c(cc3oc12)O[C@H]1OC=C[C@@]41O`, the AC35 was 32.6 nM.

On to `N#CC1=C(N)Oc2cc(N)ccc2C12C(=O)Nc1ccc(Br)cc12` (configuration not stated), for which the AC35 was 18900 nM.

Regarding `C=C([C@@H](O)[C@@H](C)O)[C@@H](OC)[C@]1(C)Cc2cc3cc(O[C@H]4CC(OC5CC(O)C(O)C(C)O5)C(O)C(C)O4)cc(O)c3c(O)c2C(=O)[C@H]1OC1CC(OC2CC(OC3CC(C)(O)C(O)C(C)O3)C(O)C(C)O2)C(O)C(C)O1` (some centres not stated), the AC35 was 36.8 nM.

Take `COc1cccc(C2C(C#N)=C(N)Oc3cc(N)ccc32)c1` (configuration not stated): the AC35 is 444 nM.

For the molecule `COc1ccccc1-c1nnc2n1N=C(c1ccc3c(c1)OCO3)CS2`, the AC35 was 16.4 nM.

Consider `O=C(c1cc(Cc2n[nH]c(=O)c3ccccc23)ccc1F)N1CCN(C(=O)C2CC2)CC1`, for which the AC35 is 3970 nM.

Turning to `N#CC1=C(N)Oc2cc(OC(=O)c3ccccc3)ccc2C1c1cccc(Br)c1` (configuration not stated), the AC35 is 2460 nM.

Turning to `CC1(C)CC(c2nc(-c3ccc4ccc(-c5ccccc5)nc4c3)c3c(N)nccn23)C1`, the AC35 was 2020 nM.

As for `COc1ccc(C2=Nn3c(nnc3-c3ccccc3Cl)SC2)cc1OC`, the AC35 was 392 nM.

Turning to `N#CC1=C(N)Oc2ccc3ccccc3c2C1c1cccc(F)c1` (configuration not stated), the AC35 is 526 nM.

As for `COc1cccc(S(=O)(=O)N2CC[C@@H]3[C@@H](CO)Nc4ccc(-c5ccc(C#N)cc5)cc4[C@@H]32)c1`, the AC35 is 21400 nM.

In the case of `CCOC(=O)CCNc1cc(N2CCc3ccccc3CC2)nc(-c2ccccn2)n1`, the AC35 is 14800 nM.

With `CCC(C)C(=O)OC1CC(C)C=C2C=CC(C)C(CCC(O)CC(O)CC(=O)O)C21` (configuration not stated), the AC35 is 25200 nM.

With `Cc1cccc(C2C(C#N)=C(N)Oc3cc(N)ccc32)c1` (configuration not stated), the AC35 is 486 nM.

With `CC[C@]1(O)CC2CN(CCc3c([nH]c4ccccc34)[C@@](C(=O)OC)(c3cc4c(cc3OC)N(C=O)[C@H]3[C@@](O)(C(=O)OC)[C@H](OC(C)=O)[C@]5(CC)C=CCN6CC[C@]43[C@@H]65)C2)C1` (some centres not stated), the AC35 was less than 1.5 nM.

With `Cn1cc(-c2ccncc2)c(-c2ccc(OCc3ccc4ccccc4n3)cc2)n1`, the AC35 was 21300 nM.

As for `COc1ccc(C2=Nn3c(nnc3-c3ccccc3OC)SC2)cc1OC`, the AC35 was 55.6 nM.

Turning to `CN1CCN(CCOc2cc(OC3CCOCC3)c3c(Nc4c(Cl)ccc5c4OCO5)ncnc3c2)CC1`, the AC35 was 22000 nM.

Turning to `N#CC1=C(N)Oc2cc(N)ccc2C1c1ccccc1Cl` (configuration not stated), the AC35 was 12300 nM.

As to `O=C(Cc1ccc(-c2ccc(OCCN3CCOCC3)cc2)cn1)NCc1ccccc1`, the AC35 is less than 23.5 nM.

In the case of `CCCCc1ccc2nc(NC(=O)OC)[nH]c2c1`, the AC35 is less than 50 nM.

Take `COc1ccc(-c2ccc3c(c2)[C@H]2[C@H](CCN2S(=O)(=O)c2ccc(OC)cc2)[C@@H](CO)N3C)cc1`: the AC35 was 3420 nM.

On to `CN(C)c1ccc2c(c1)OC(N)=C(C#N)C2c1cccc(F)c1` (configuration not stated), for which the AC35 was 17.7 nM.

For `COc1ccc(S(=O)(=O)N2CC[C@@H]3[C@H](CO)Nc4ccc(-c5ccc(C#N)cc5)cc4[C@@H]32)cc1`, the AC35 is 6540 nM.

For `COc1ccc(C2=Nn3c(nnc3-c3ccccc3F)SC2)cc1OC`, the AC35 was 3180 nM.

Take `N#CC1=C(N)Oc2cc3c(cc2C1c1cccc(Br)c1)OCO3` (configuration not stated): the AC35 was 28.8 nM.

Turning to `C[C@@]1(C(=O)Nc2ccc(F)nc2)CCCN1c1nc(Nc2cc(C3CC3)[nH]n2)c2cccn2n1`, the AC35 was 296 nM.

As for `COc1ccc(-c2ccc3c(c2)[C@H]2[C@H](CCN2S(=O)(=O)c2ccc(OC)cc2)[C@@H](CO)N3)cc1`, the AC35 was 3950 nM.

As to `Cc1nc(Nc2ncc(C(=O)Nc3c(C)cccc3Cl)s2)cc(N2CCN(CCO)CC2)n1`, the AC35 is 5450 nM.

With `Cc1ccc(S(=O)(=O)N2CC[C@@H]3[C@@H](CO)Nc4ccc(-c5ccc(C#N)cc5)cc4[C@@H]32)cc1`, the AC35 was 19800 nM.

Consider `COc1ccc(S(=O)(=O)N2CC[C@@H]3[C@@H](CO)Nc4ccc(-c5cccc(C#N)c5)cc4[C@@H]32)cc1`, for which the AC35 was 3950 nM.

In the case of `N#Cc1ccc(-c2ccc3c(c2)[C@H]2[C@H](CCN2S(=O)(=O)c2ccccc2F)[C@@H](CO)N3)cc1`, the AC35 was 12500 nM.

Regarding `CCc1c2c(nc3ccc(O)cc13)-c1cc3c(c(=O)n1C2)COC(=O)C3(O)CC` (configuration not stated), the AC35 is 2 nM.

Consider `N#CC1=C(N)Oc2cc(N)ccc2C1c1cccc(Br)c1` (configuration not stated), for which the AC35 is 104 nM.

Turning to `Clc1ccccc1-c1nnc2n1N=C(c1ccc3c(c1)OCO3)CS2`, the AC35 was 408 nM.

For `COc1cc(C2C(C#N)=C(N)Oc3cc(N(C)C)ccc32)cc2c1OCO2` (configuration not stated), the AC35 was 82.3 nM.

For `Cc1cc(Nc2cc(N3CCN(C)CC3)nc(Sc3ccc(NC(=O)C4CC4)cc3)n2)n[nH]1`, the AC35 was 271 nM.

`COc1ccc(S(=O)(=O)N(C(C)=O)c2ccc(OC(C)=O)c3ccccc23)cc1[N+](=O)[O-]`: the AC35 is 460 nM.

For `Nc1ccn([C@@H]2O[C@H](CO)[C@H](O)C2O)c(=O)n1` (some centres not stated), the AC35 was 66 nM.

As for `CC(C)N1c2ccccc2C(c2ccc(F)cc2)C1/C=C/C(O)CC(O)CC(=O)O` (configuration not stated), the AC35 was 1420 nM.

`Cc1ccccc1C1C(C#N)=C(N)Oc2cc(N)ccc21` (configuration not stated): the AC35 is 13100 nM.

Take `COc1ccc(OC)c(-c2nnc3n2N=C(c2ccc(OC)c(OC)c2)CS3)c1`: the AC35 is < 23.5 nM and 16.3 nM.

As to `CC[C@@]1(O)C(=O)OCc2c1cc1n(c2=O)Cc2cc3c(CN(C)C)c(O)ccc3nc2-1`, the AC35 is 16.6 nM.

Turning to `N#Cc1ccc(-c2ccc3c(c2)[C@H]2[C@H](CCN2S(=O)(=O)c2cccc(F)c2)[C@@H](CO)N3)cc1`, the AC35 is 5430 nM.

Consider `COc1ccc(-c2cc(NC=O)c3ncc(-c4ccc(OC)c(OC)c4)n3c2)cc1`, for which the AC35 is 545 nM.

With `COc1ccc(C(=O)CC2(O)C(=O)Nc3c(Cl)ccc(Cl)c32)cc1` (configuration not stated), the AC35 is 2250 nM.

In the case of `N#CC1=C(N)Oc2cc(N)ccc2C1c1ccc2ccccc2c1` (configuration not stated), the AC35 is 11900 nM.

For `N#CC1=C(N)Oc2cc(N)ccc2C1c1cccc(F)c1` (configuration not stated), the AC35 is 907 nM.
